Measurements as given in patent publication EP3070175A1, “TEST FOR DETERMINING SUSCEPTIBILITY OR RESISTANCE TO POLYMYXINS IN ENTEROBACTERIACEAE” (Université de Fribourg, priority 2015, dated 2016).

Test system: enterobacterial strains
Assay: Polymyxin test: colorimetric detection of growth with polymyxin B as selective antibiotic
Type: cell-based, Enterobacteriaceae
Conditions: polymyxin B instead of colistin as selective antibiotic; all tested strains
Experimental: Each inoculum was prepared by mixing 1 öse (10 µl) of a fresh culture of the tested bacteria in 5 ml of sterile NaCl 0.85% (at a density of 3 Mac Farland, i.e. about 10^9 CFU/ml).
250 ml of reactive medium was prepared by mixing the compounds hereafter: • a broth powder of a non selective growth medium for bacteria, the Cation-Adjusted Mueller-Hinton broth (MHB-CA) : 6.25 g • a colour indicator, the phenol red : 0.0125 g • sterile distilled water 225 ml • sterile D (+)-glucose (10 %) anhydrous (sterilization by filtration) : 25 ml
The pH of the final reactive medium was adjusted to 6.6 and 6.7 with HCl 1M.
Colistin or polymyxin B was added or not at the concentration of 5 mg/L in the reactive medium. Standard colistin sulphate and polymyxin B were from Sigma Aldrich (Saint-Louis, France). Those antibiotic molecule powders were kept at 4°C before their use, whereas polymyxin dilutions were kept at -20°C.
For each strain, two wells of a plastic sterile plate with 96 shaped wells were inoculated in parallel with and without polymyxin (colistin sulphate or polymyxin B) in order to compare their colour change.
Plastic sterile plates were from Sarstedt (Nümbrecht, Germany). The tray may be prepared as follows : • 1. […]
The results of the tests were recorded at 10 min (checking for no spontaneous colour change in the well) and then every hour for a maximum of 4 hours by visual inspection. […]

Substance: polymyxin B
- Results of the method of the invention compared with colistin: Identical results
